According to the supplement of paper PMC13380429:

Legend:
[1] = tested on: A549-ACE2 infected with SARS-CoV-2; assay: cell count relative to DMSO; higher = less toxic; settings: 24 h
Caco-2 [2] = assay: cell viability relative to DMSO; higher = less toxic; settings: 72 h
HepG2 [3] = assay: as above; settings: 72 h
U2OS [4] = assay: as above; settings: 72 h
Vero E6 [5] = assay: as above; settings: 72 h
[6] = tested on: A549-ACE2 infected with SARS-CoV-2; assay: SARS-CoV-2 infection rate relative to DMSO; higher = more infection; settings: 24 h
A549-ACE2 [7] = assay: drug-induced phospholipidosis relative to tamoxifen; higher = more phospholipidosis
[8] = tested on: A549-ACE2 infected with SARS-CoV-2; assay: morphology score (similarity to uninfected cells); higher = more like uninfected cells; settings: 24 h
Caco-2 [9] = assay: relative viability EC50 (midpoint between 100% and the lowest measured viability); higher = less toxic; settings: 72 h
HepG2 [10] = assay: as above; settings: 72 h
U2OS [11] = assay: as above; settings: 72 h
Vero E6 [12] = assay: as above; settings: 72 h
Caco-2 [13] = assay: drug sensitivity score (DSS) for viability; higher = more toxic; extreme values may be limits of the assay; settings: 72 h
HepG2 [14] = assay: as above; settings: 72 h
U2OS [15] = assay: as above; settings: 72 h
Vero E6 [16] = assay: as above; settings: 72 h
Calu-3 [17] = assay: cell viability relative to DMSO; higher = less toxic; settings: 72 h
A549-ACE2 [18] = assay: phospholipidosis EC50; higher = less potent phospholipidosis inducer; settings: 24 h
Calu-3 [19] = assay: relative viability EC50 (midpoint between 100% and the lowest measured viability); higher = less toxic; settings: 72 h
Calu-3 [20] = assay: drug sensitivity score (DSS) for viability; higher = more toxic; extreme values may be limits of the assay; settings: 72 h

N=C(N)c1cc2ccc(OC(=O)c3cccs3)cc2s1 [BCX-1470]
Settings | SARS-CoV-2 infection rate, [6] [%] | cell count, [1] [%] | cell viability, Caco-2 [2] [%] | cell viability, HepG2 [3] [%] | cell viability, U2OS [4] [%] | cell viability, Vero E6 [5] [%] | morphology score, [8]
1 nM | – | – | 97.9 | 112 | 100 | 97 | –
10 nM | – | – | 96.1 | 100 | 100 | 95.2 | –
100 nM | – | – | 95.5 | 104 | 98.4 | 92.8 | –
0.3 µM | 97 | 102 | – | – | – | – | 0.05
1000 nM | – | – | 96.5 | 102 | 95.9 | 98.2 | –
3 µM | 99 | 99 | – | – | – | – | -0.11
10 µM | 54 | 95 | – | – | – | – | 0.59
10000 nM | – | – | 107 | 13.1 | 101 | 96.2 | –
30 µM | 22 | 52 | – | – | – | – | 0.39

drug-induced phospholipidosis [%], A549-ACE2 [7]
Settings | 0.3 µM | 0.833333 µM | 3.33333 µM | 6.66667 µM | 10 µM
24 h | 1.95 | 3.92 | 0.54 | 7.05 | 10.8
48 h | 1.86 | -0.27 | -2.94 | 10.7 | 17.1
72 h | 0.245 | -2.66 | -0.938 | 1.04 | 8.25

Settings | drug sensitivity score | relative viability EC50 [µM]
Caco-2 [9] | – | > 10
Caco-2 [13] | 0 | –
HepG2 [10] | – | 3.32
HepG2 [14] | 4.6 | –
U2OS [11] | – | > 10
U2OS [15] | 0 | –
Vero E6 [12] | – | > 10
Vero E6 [16] | 0 | –

CC(C)c1cnn2c(NCc3ccccc3)cc(NCCCCCCN)nc12 [BS-181]
Settings | SARS-CoV-2 infection rate, [6] [%] | cell count, [1] [%] | cell viability, Caco-2 [2] [%] | cell viability, Calu-3 [17] [%] | cell viability, HepG2 [3] [%] | cell viability, U2OS [4] [%] | cell viability, Vero E6 [5] [%] | morphology score, [8]
1 nM | – | – | 101 | 100 | 97 | 102 | 98.5 | –
10 nM | – | – | 84 | 106 | 92 | 94.8 | 97.6 | –
100 nM | – | – | 122 | 99.9 | 98.1 | 101 | 99 | –
0.3 µM | 99 | 102 | – | – | – | – | – | 0.12
1000 nM | – | – | 90.2 | 115 | 90.3 | 96.1 | 94.6 | –
3 µM | 37 | 115 | – | – | – | – | – | 0.87
10 µM | 9 | 101 | – | – | – | – | – | 0.93
10000 nM | – | – | 79 | 87.3 | 80 | 91 | 86.1 | –
30 µM | 25 | 47 | – | – | – | – | – | 0.26

Settings | drug sensitivity score | phospholipidosis EC50 [µM] | relative viability EC50 [µM]
A549-ACE2 [18] | – | 15 | –
Caco-2 [9] | – | – | > 10
Caco-2 [13] | 1.7 | – | –
Calu-3 [19] | – | – | > 10
Calu-3 [20] | 0 | – | –
HepG2 [10] | – | – | > 10
HepG2 [14] | 0.9 | – | –
U2OS [11] | – | – | > 10
U2OS [15] | 0 | – | –
Vero E6 [12] | – | – | > 10
Vero E6 [16] | 0.4 | – | –

drug-induced phospholipidosis [%], A549-ACE2 [7]
Settings | 0.3 µM | 0.833333 µM | 3.33333 µM | 6.66667 µM | 10 µM | 30 µM
24 h | 0.84 | 1.04 | 6.25 | 11.9 | 29.1 | 83.9
48 h | 1.54 | 0.53 | 4.06 | 7 | 14.2 | 37.6
72 h | 2.87 | 1.74 | 3.1 | 5.35 | 9.65 | 19.3

C(#Cc1nc2ncccc2nc1OCCN1CCCC1)c1ccccc1 [GK921]
Settings | SARS-CoV-2 infection rate, [6] [%] | cell count, [1] [%] | cell viability, Caco-2 [2] [%] | cell viability, Calu-3 [17] [%] | cell viability, HepG2 [3] [%] | cell viability, U2OS [4] [%] | cell viability, Vero E6 [5] [%] | morphology score, [8]
1 nM | – | – | 100 | 98.7 | 92.4 | 97.1 | 97.2 | –
10 nM | – | – | 98.2 | 90.9 | 99.3 | 95.7 | 97.6 | –
0.1 µM | 100 | 101 | – | – | – | – | – | 0.03
100 nM | – | – | 101 | 93.1 | 102 | 99.2 | 94.9 | –
0.3 µM | 102 | 102 | – | – | – | – | – | -0.05
1 µM | 101 | 95 | – | – | – | – | – | 0.02
1000 nM | – | – | 99.5 | 93.3 | 74.5 | 72.2 | 103 | –
3 µM | 53 | 86 | – | – | – | – | – | 0.48
10000 nM | – | – | 3.8 | 2.5 | -0.3 | -0.2 | 0 | –

drug-induced phospholipidosis [%], A549-ACE2 [7]
Settings | 24 h | 48 h | 72 h
0.3 µM | 2.77 | 8.46 | 11.7
0.833333 µM | 6.24 | 5.53 | 2.54

Settings | drug sensitivity score | relative viability EC50 [µM]
Caco-2 [9] | – | 3.13
Caco-2 [13] | 5.4 | –
Calu-3 [19] | – | 2.61
Calu-3 [20] | 6.4 | –
HepG2 [10] | – | 1.53
HepG2 [14] | 9.4 | –
U2OS [11] | – | 1.46
U2OS [15] | 9.7 | –
Vero E6 [12] | – | 3.35
Vero E6 [16] | 5.3 | –
